From ChEMBL document CHEMBL5634148, “Synthesis and evaluation of novel pleuromutilin derivatives targeting the 50S ribosomal subunit for antibacterial ability” (Eur J Med Chem, 2023)
≈ marks a conversion by molar mass, not a printed value.

Legend:
[1] = system: Escherichia coli; assay: Antibacterial activity against Escherichia coli CICC 10389 assessed as bacterial growth inhibition incubated for 18 to 24 hrs by NCCLS based assay; format: functional; settings: time 18-24 hrs
[2] = system: Staphylococcus aureus; assay: Antibacterial activity against methicillin-resistant Staphylococcus aureus BNCC 337371 assessed as bacterial growth inhibition incubated for 18 to 24 hrs by NCCLS based assay; format: functional; settings: time 18-24 hrs
[3] = system: Enterococcus faecalis; assay: Antibacterial activity against Enterococcus faecalis assessed as bacterial growth inhibition incubated for 18 to 24 hrs by NCCLS based assay; format: functional; settings: time 18-24 hrs
[4] = system: Streptococcus agalactiae; assay: Antibacterial activity against Streptococcus agalactiae assessed as bacterial growth inhibition incubated for 18 to 24 hrs by NCCLS based assay; format: functional; settings: time 18-24 hrs
[5] = system: Staphylococcus epidermidis; assay: Antibacterial activity against methicillin-resistant Staphylococcus epidermidis ATCC 51625 assessed as bacterial growth inhibition incubated for 18 to 24 hrs by NCCLS based assay; format: functional; settings: time 18-24 hrs
[6] = system: Staphylococcus aureus; assay: Antibacterial activity against Staphylococcus aureus ATCC 25923 assessed as bacterial growth inhibition incubated for 18 to 24 hrs by NCCLS based assay; format: functional; settings: time 18-24 hrs
[7] = system: Staphylococcus aureus; assay: Bactericidal activity against methicillin-resistant Staphylococcus aureus ATCC 29213 incubated for 24 hrs by time kill assay; format: functional, organism-based
[8] = system: Staphylococcus aureus; assay: Bactericidal activity against Staphylococcus aureus incubated for 24 hrs by time kill assay; format: functional, organism-based
[9] = system: Pasteurella multocida; assay: Antibacterial activity against Pasteurella multocida CVCC 1659 assessed as bacterial growth inhibition incubated for 18 to 24 hrs by NCCLS based assay; format: functional; settings: time 18-24 hrs
[10] = system: Staphylococcus aureus; assay: Antibacterial activity against methicillin-resistant Staphylococcus aureus infected in neutropenic Balb/c mouse model assessed as reduction in bacterial load in lungs at 40 mg/kg, iv measured after 5 days; format: functional; settings: time 5 day
[11] = Toxicity in neutropenic Balb/c mouse model infected with methicillin-resistant Staphylococcus aureus assessed as animal survival at 40 mg/kg, iv measured for 7 days; format: organism-based; settings: in vivo, 168 h, time 7 day
[12] = system: Staphylococcus aureus; assay: Antibacterial activity against methicillin-resistant Staphylococcus aureus infected in neutropenic Balb/c mouse model assessed as reduction in bacterial load in lungs at 15 mg/kg, iv measured after 5 days; format: functional; settings: time 5 day

SMILES | MIC [1] [µg/mL] | MIC [2] [µg/mL] | MIC [3] [µg/mL] | MIC [4] [µg/mL] | MIC [5] [µg/mL] | MIC [6] [µg/mL] | Activity [7] | Activity [8] | MIC [9] [µg/mL] | Activity [10] [log10CFU/ml] | Activity [11] [%] | Activity [12] [log10CFU/ml]
C=C[C@]1(C)C[C@@H](OC(=O)CSc2ncnc(N3CCOCC3)n2)[C@]2(C)[C@H](C)CC[C@]3(CCC(=O)[C@H]32)[C@@H](C)[C@@H]1O | ≥ 64 | 0.063 (≈ 0.113 µM) | 32 (≈ 57.3 µM) | 0.125 (≈ 0.224 µM) | 0.125 (≈ 0.224 µM) | 0.063 (≈ 0.113 µM) | Dose-Dependent Effect | Dose-Dependent Effect | ≥ 64 |  |  | 
C=C[C@]1(C)C[C@@H](OC(=O)CSc2ncnc(N3CCCCC3)n2)[C@]2(C)[C@H](C)CC[C@]3(CCC(=O)[C@H]32)[C@@H](C)[C@@H]1O | ≥ 64 | 0.125 (≈ 0.225 µM) | 32 (≈ 57.5 µM) | 0.5 (≈ 0.898 µM) | 0.125 (≈ 0.225 µM) | 0.063 (≈ 0.113 µM) |  |  | ≥ 64 |  |  | 
C=C[C@]1(C)C[C@@H](OC(=O)CSCCN(CC)CC)[C@]2(C)[C@H](C)CC[C@]3(CCC(=O)[C@H]32)[C@@H](C)[C@@H]1O [TIAMULIN] | ≥ 64 | 0.5 (≈ 1.01 µM) | 16 (≈ 32.4 µM) | 0.125 (≈ 0.253 µM) | 0.5 (≈ 1.01 µM) | 0.25 (≈ 0.506 µM) |  |  | ≥ 64 | ~2 | 50 | 1.24
C=C[C@]1(C)C[C@@H](OC(=O)CSc2ncnc(OC3CCCC3)n2)[C@]2(C)[C@H](C)CC[C@]3(CCC(=O)[C@H]32)[C@@H](C)[C@@H]1O | ≥ 64 | 16 (≈ 28.7 µM) | ≥ 64 | 8 (≈ 14.3 µM) | 16 (≈ 28.7 µM) | 4 (≈ 7.17 µM) |  |  | ≥ 64 |  |  | 
C=C[C@]1(C)C[C@@H](OC(=O)CSc2ncnc(N3CCN(C)CC3)n2)[C@]2(C)[C@H](C)CC[C@]3(CCC(=O)[C@H]32)[C@@H](C)[C@@H]1O | ≥ 64 | 0.125 (≈ 0.219 µM) | ≥ 64 | 4 (≈ 7 µM) | 0.125 (≈ 0.219 µM) | 0.125 (≈ 0.219 µM) |  |  | ≥ 64 |  |  | 
C=C[C@]1(C)C[C@@H](OC(=O)CSc2ncnc(N)n2)[C@]2(C)[C@H](C)CC[C@]3(CCC(=O)[C@H]32)[C@@H](C)[C@@H]1O | ≥ 64 | 0.125 (≈ 0.256 µM) | 16 (≈ 32.7 µM) | 0.125 (≈ 0.256 µM) | 0.25 (≈ 0.512 µM) | 0.125 (≈ 0.256 µM) |  |  | ≥ 64 |  |  | 
C=C[C@]1(C)C[C@@H](OC(=O)CSc2ncnc(NCC)n2)[C@]2(C)[C@H](C)CC[C@]3(CCC(=O)[C@H]32)[C@@H](C)[C@@H]1O | ≥ 64 | 0.125 (≈ 0.242 µM) | 16 (≈ 31 µM) | 0.013 (≈ 0.0252 µM) | 0.125 (≈ 0.242 µM) | 0.125 (≈ 0.242 µM) |  |  | ≥ 64 |  |  | 
C=C[C@]1(C)C[C@@H](OC(=O)CSc2ncnc(Cl)n2)[C@]2(C)[C@H](C)CC[C@]3(CCC(=O)[C@H]32)[C@@H](C)[C@@H]1O | ≥ 64 | 8 (≈ 15.7 µM) | 32 (≈ 63 µM) | 2 (≈ 3.94 µM) | 8 (≈ 15.7 µM) | 4 (≈ 7.87 µM) |  |  | ≥ 64 |  |  | 
C=C[C@]1(C)C[C@@H](OC(=O)CSc2ncnc(OCCC)n2)[C@]2(C)[C@H](C)CC[C@]3(CCC(=O)[C@H]32)[C@@H](C)[C@@H]1O | ≥ 64 | 16 (≈ 30.1 µM) | ≥ 64 | 8 (≈ 15 µM) | 16 (≈ 30.1 µM) | 16 (≈ 30.1 µM) |  |  | ≥ 64 |  |  | 
C=C[C@]1(C)C[C@@H](OC(=O)CSc2ncnc(NC)n2)[C@]2(C)[C@H](C)CC[C@]3(CCC(=O)[C@H]32)[C@@H](C)[C@@H]1O | ≥ 64 | 0.25 (≈ 0.497 µM) | 32 (≈ 63.7 µM) | 0.125 (≈ 0.249 µM) | 0.5 (≈ 0.995 µM) | 0.125 (≈ 0.249 µM) |  |  | ≥ 64 |  |  | 
C=C[C@]1(C)C[C@@H](OC(=O)CSc2ncnc(NCCN3CCOCC3)n2)[C@]2(C)[C@H](C)CC[C@]3(CCC(=O)[C@H]32)[C@@H](C)[C@@H]1O | ≥ 64 | 0.125 (≈ 0.208 µM) | 32 (≈ 53.2 µM) | 0.125 (≈ 0.208 µM) | 0.25 (≈ 0.415 µM) | 0.063 (≈ 0.105 µM) |  |  | ≥ 64 |  |  | 
